Article PMC10180488, “Novel Derivatives of Eugenol as a New Class of PPARγ Agonists in Treating Inflammation: Design, Synthesis, SAR Analysis and In Vitro Anti-Inflammatory Activity” (Molecules, 2023)
Where “and” joins values, the source holds several entries; their conditions need not be identical. Equal entries are not always repeated.

Assays:
[1] = test system: human red blood cells (HRBC); assay: HRBC membrane stabilization method; settings: for HRBC membrane stabilization (percentage protection against HRBC lysis): mean ± SD (n = 3); for IC50: Homo sapiens, Erythrocyte, read-out: IC50 Values, HRBC membrane stabilization method
Protocol: The principle of this procedure is to stabilize the membrane of human red blood cells by hypotonic membrane lysis. […] Lysosomal enzyme levels typically decrease as the HRBC membrane is stabilized.
The packed cells in this blood solution were separated after centrifugation at 3000 rpm [41]. The packed cells were cleaned using an isosaline solution, and then, isosaline was used to prepare a 10% v/v suspension. This HRBC suspension was employed to estimate its anti-inflammatory properties. Different concentrations of the synthesized compounds and the reference standard were each combined with 1 mL of phosphate buffer (pH 7.4), 2 mL of hyposaline, and 0.5 mL of HRBC solution. A total of 2.0 mL of distilled water was utilized as the control. The assay mixtures were all centrifuged at 3000 rpm after 30 min of incubation at 37°C. The following formula was used to determine the percentage of stabilized HRBC membranes. Percentage protection= 100 − (OD sample/OD control) × 100

egg albumin = egg albumin (Gallus gallus, UniProt P01012); assay: Albumin denaturation assay; format: biochemical, hen; settings: mean ± SD (n = 3), read-out: Percentage inhibition of denaturation of albumin
Chain of egg albumin (P01012 2-386): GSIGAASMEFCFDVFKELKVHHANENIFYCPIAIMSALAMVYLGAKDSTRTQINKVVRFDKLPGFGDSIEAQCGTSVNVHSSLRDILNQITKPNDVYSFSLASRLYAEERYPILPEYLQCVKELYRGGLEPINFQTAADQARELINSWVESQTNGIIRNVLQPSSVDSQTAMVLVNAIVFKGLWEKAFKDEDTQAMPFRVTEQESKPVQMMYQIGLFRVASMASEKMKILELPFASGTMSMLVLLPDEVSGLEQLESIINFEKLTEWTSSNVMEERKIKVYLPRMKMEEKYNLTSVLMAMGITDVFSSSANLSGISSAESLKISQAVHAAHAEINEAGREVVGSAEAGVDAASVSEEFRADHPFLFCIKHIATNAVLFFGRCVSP
Protocol: Inflammation is accompanied by protein denaturation. Tissue protein denaturation is a well-established cause of Inflammatory illnesses. Inflammatory disorders including rheumatoid arthritis, diabetes, and cancer have been linked to the denaturation of proteins. The ability of a substance to stop proteins from becoming denaturized has a role in the prevention of inflammatory disorders. […] Denaturation of proteins is accomplished by keeping the reaction mixture in a water bath at 70 °C for […].
Minor modifications were made to Mizushima and Kobayashi’s and Sakat et al. methodologies. The reaction mixture containing 0.2 mL of egg albumin (from a fresh hen’s egg) is mixed with 2.8 mL of phosphate-buffered saline (PBS, pH 6.4) and 2 mL of synthesized compounds in varying concentrations. The mixture was then heated at 70 °C for 5 min after being incubated at 37 °C for approximately 15–20 min. After cooling, their absorbance was measured at 660 nm spectrometrically. Three duplicates of the experiment were carried out. […] Percentage inhibition = (OD control − OD sample/OD control) × 100

human PPARγ- LBD = biological target: T1, human PPARγ- LBD (Homo sapiens, UniProt P37231); assay: Lanthascreen TR-FRET PPARγ competitive binding assay; settings: for IC50: Lanthascreen TR-FRET competitive binding; for Raw Data / Raw Data - Background: TR-FRET
T1 construct: a mixture of a human PPARγ- LBD labelled with glutathione S-transferase (GST)
T1 sequence (P37231 238-503 limits assumed): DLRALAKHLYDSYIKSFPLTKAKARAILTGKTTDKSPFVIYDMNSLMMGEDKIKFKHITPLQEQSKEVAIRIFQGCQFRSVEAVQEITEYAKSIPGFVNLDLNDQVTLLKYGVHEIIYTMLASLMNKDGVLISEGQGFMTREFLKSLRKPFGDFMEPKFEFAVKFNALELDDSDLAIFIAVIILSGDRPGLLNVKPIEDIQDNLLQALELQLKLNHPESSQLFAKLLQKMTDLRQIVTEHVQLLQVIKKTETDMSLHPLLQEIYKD
Protocol: Using the Lanthasreen TR-FRET assay, the synthesized compounds were first preliminary tested for the PPARγ binding affinity. […] A chemical under test displaces the tracer from PPAR-LBD, which lowers the TR-FRET ratio and decreases the FRET signal Figure 8 [33].
A multimode low-volume proxy plate reader was used to read the plates after one hour of incubation. Then, a mixture of a human PPARγ- LBD labelled with glutathione S-transferase (GST), a fluorescent small pan-PPAR ligand (FluormoneTM Pan-PPAR Green), and terbium-labeled anti-GST antibody was added.

Compound | HRBC membrane stabilization (percentage protection against HRBC lysis) ([1]; 6.25 µM) [%] | HRBC membrane stabilization (percentage protection against HRBC lysis) ([1]; 12.5 µM) [%] | HRBC membrane stabilization (percentage protection against HRBC lysis) ([1]; 25 µM) [%] | HRBC membrane stabilization (percentage protection against HRBC lysis) ([1]; 50 µM) [%] | HRBC membrane stabilization (percentage protection against HRBC lysis) ([1]; 100 µM) [%] | HRBC membrane stabilization (percentage protection against HRBC lysis) ([1]; 200 µM) [%] | HRBC membrane stabilization (percentage protection against HRBC lysis) ([1]; 400 µM) | IC50 [1] [µM] | inhibition at 6.25 µM (egg albumin) [%] | inhibition at 12.5 µM (egg albumin) [%] | inhibition at 25 µM (egg albumin) [%] | inhibition at 50 µM (egg albumin) [%] | inhibition at 100 µM (egg albumin) [%] | inhibition at 200 µM (egg albumin) [%] | inhibition at 400 µM (egg albumin) [%] | IC50 (human PPARγ- LBD) [µM] | Raw Data (human PPARγ- LBD; 0.0000512 µM) [RLU] | Raw Data - Background (human PPARγ- LBD; 0.0000512 µM) [RLU] | Raw Data (human PPARγ- LBD; 0.000256 µM) [RLU] | Raw Data - Background (human PPARγ- LBD; 0.000256 µM) [RLU] | further results
C=CCc1ccc(OCC(=O)Nc2cccc(Cl)c2)c(OC)c1 [Compound 1e, 2-(4-Allyl-2-methoxyphenoxy)-N-(3-chlorophenyl)acetamide] | 12.36 ± 0.48 | 19.68 ± 0.38 | 34.50 ± 0.36 | 42.00 ± 0.56 | 51.04 ± 0.46 | 66.05 ± 0.36 | 75.09 ± 0.36% | 58.1 | 5.49 ± 0.43 | 9.47 ± 0.39 | 15.7 ± 0.24 | 22.35 ± 0.18 | 38.61 ± 0.3 | 48.21 ± 0.18 | 56.62 ± 0.37 | 11.5 | 2.087 | 1.839 | 1.860 | 1.610 | Raw Data (human PPARγ- LBD; 0.00128 µM): 1.903 RLU; Raw Data - Background (human PPARγ- LBD; 0.00128 µM): 1.678 RLU; Raw Data (human PPARγ- LBD; 0.0064 µM): 1.927 RLU; Raw Data - Background (human PPARγ- LBD; 0.0064 µM): 1.692 RLU; Raw Data (human PPARγ- LBD; 0.032 µM): 1.988 RLU; Raw Data - Background (human PPARγ- LBD; 0.032 µM): 1.752 RLU; Raw Data (human PPARγ- LBD; 0.16 µM): 1.922 RLU; Raw Data - Background (human PPARγ- LBD; 0.16 µM): 1.688 RLU; Raw Data (human PPARγ- LBD; 0.8 µM): 1.820 RLU; Raw Data - Background (human PPARγ- LBD; 0.8 µM): 1.683 RLU; Raw Data (human PPARγ- LBD; 4 µM): 1.752 RLU; Raw Data - Background (human PPARγ- LBD; 4 µM): 1.522 RLU; Raw Data (human PPARγ- LBD; 20 µM): 1.018 RLU; Raw Data - Background (human PPARγ- LBD; 20 µM): 0.721 RLU; Raw Data (human PPARγ- LBD; 100 µM): 0.834 RLU; Raw Data - Background (human PPARγ- LBD; 100 µM): 0.586 RLU
C=CCc1ccc(OCC(=O)Nc2ccccc2C)c(OC)c1 [Compound 1c, 2-(4-Allyl-2-methoxyphenoxy)-N-(o-tolyl)acetamide] | 6.21 ± 0.38 | 14.26 ± 0.38 | 24.78 ± 0.38 | 29.08 ± 0.46 | 40.65 ± 0.28 | 50.92 ± 0.48 | 62.54% and 62.54 ± 0.36% | 79.7 | 1.77 ± 0.37 | 5.32 ± 0.37 | 8.42 ± 0.24 | 13.8 ± 0.43 | 19.2 ± 0.24 | 27.26 ± 0.24 | 34.03 ± 0.31 | 8.2 | 1.881 | 1.647 | 1.88 | 1.646 | Raw Data (human PPARγ- LBD; 0.00128 µM): 1.88 RLU; Raw Data - Background (human PPARγ- LBD; 0.00128 µM): 1.637 RLU; Raw Data (human PPARγ- LBD; 0.0064 µM): 1.886 RLU; Raw Data - Background (human PPARγ- LBD; 0.0064 µM): 1.651 RLU; Raw Data (human PPARγ- LBD; 0.032 µM): 1.902 RLU; Raw Data - Background (human PPARγ- LBD; 0.032 µM): 1.657 RLU; Raw Data (human PPARγ- LBD; 0.16 µM): 1.994 RLU; Raw Data - Background (human PPARγ- LBD; 0.16 µM): 1.76 RLU; Raw Data (human PPARγ- LBD; 0.8 µM): 1.991 RLU; Raw Data - Background (human PPARγ- LBD; 0.8 µM): 1.756 RLU; Raw Data (human PPARγ- LBD; 4 µM): 1.33 RLU; Raw Data - Background (human PPARγ- LBD; 4 µM): 1.096 RLU; Raw Data (human PPARγ- LBD; 20 µM): 0.1617 RLU; Raw Data - Background (human PPARγ- LBD; 20 µM): 0.02704 RLU; Raw Data (human PPARγ- LBD; 100 µM): 0.06866 RLU; Raw Data - Background (human PPARγ- LBD; 100 µM): -0.146 RLU
